In paper PMC9851200, “Multiparameter phenotypic screening for endogenous TFEB and TFE3 translocation identifies novel chemical series modulating lysosome function” (Autophagy, 2022):

What was measured:
endogenous TFE3 = experiment: TFE3 nuclear translocation, immunocytochemistry high-content imaging; format: cell-based
endogenous TFEB = experiment: TFEB nuclear translocation, immunocytochemistry high-content imaging; format: cell-based
SH-SY5Y cells [1] = test system: SH-SY5Y cells; further: reference of the scale not given here
SH-SY5Y cells [2] = conditions: human, SH-SY5Y cells, 24 h, 1 µM
SH-SY5Y cells [3] = conditions: human, SH-SY5Y cells, 24 h, 1 µM; remark: listed apart in the source

| SMILES | Nuclear Count (SH-SY5Y cells [2]) | AK (SH-SY5Y cells [3]) | TFE3 % (endogenous TFE3) [%] | TFEB % (endogenous TFEB) [%] | DQ Intensity (SH-SY5Y cells [1]) | DQ Spot (SH-SY5Y cells [1]) |
| --- | --- | --- | --- | --- | --- | --- |
| CC(=O)Nc1n[nH]c2ncc(-c3ccccc3)cc12 [SB-548492] | 87.30 | 85.75 | 13.46 | 4.73 | 81.01 | 101.49 |
| CCCC(=O)Nc1n[nH]c2ncccc12 [SB-601436] | 111.13 | 122.64 | 11.89 | 6.83 | 119.21 | 109.95 |
| Nc1n[nH]c2cnc(-c3ccccc3)cc12 [SB-642124] | 121.57 | 86.32 | 5.79 | 10.03 | 94.71 | 98.20 |
| CCN1CCN(CCCC(=O)Nc2n[nH]c3nc(-c4ccc(O)cc4)c(Br)cc23)CC1 [SB-731579] | 67.01 | 91.62 | 6.82 | 17.61 | 115.44 | 103.09 |
| O=C(Nc1n[nH]c2nc(-c3cccs3)c(Br)cc12)C1CC1 [SB-735297] | 125.04 | 112.72 | 10.45 | 7.45 | 103.59 | 106.97 |
| O=C(Nc1n[nH]c2nc(-c3nccs3)c(Br)cc12)C1CC1 [SB-742251] | 130.73 | 80.83 | 5.59 | 12.43 | 109.29 | 109.81 |
| O=C(Nc1n[nH]c2nc(-c3nccs3)c(Br)cc12)C1CCCC1 [SB-742609] | 69.12 | 69.40 | 7.93 | 8.05 | 95.35 | 108.28 |

The next lines start with results.

| Nuclear Count (SH-SY5Y cells [2]) | AK (SH-SY5Y cells [3]) | SMILES | TFE3 % (endogenous TFE3) [%] | TFEB % (endogenous TFEB) [%] | DQ Intensity (SH-SY5Y cells [1]) | DQ Spot (SH-SY5Y cells [1]) |
| --- | --- | --- | --- | --- | --- | --- |
| 73.65 | 115.51 | O=C(Nc1n[nH]c2nc(-c3ccccc3)c(Br)cc12)C1CC1 [SB-708998] | 9.05 | 9.86 | 93.68 | 102.39 |
| 127.54 | 67.50 | O=C(Nc1n[nH]c2nc(-c3ccccc3)ccc12)C1CC1 [SB-708999] | 15.72 | 6.34 | 102.03 | 111.17 |
| 105.81 | 104.06 | COc1cccc(-c2ccc3c(NC(=O)C4CC4)n[nH]c3n2)c1 [SB-710903] | 8.53 | 9.14 | 82.25 | 92.88 |
| 104.88 | 73.81 | COc1ccccc1-c1ccc2c(NC(=O)C3CC3)n[nH]c2n1 [SB-711239] | 10.01 | 3.98 | 73.89 | 92.69 |
| 102.12 | 88.20 | O=C(Nc1n[nH]c2nc(-c3ccccc3O)ccc12)C1CC1 [SB-711880] | 12.20 | 4.35 | 70.14 | 92.53 |
| 98.09 | 71.30 | O=C(Nc1n[nH]c2cc(-c3cccs3)ccc12)C1CC1 [SB-731284] | 10.84 | 12.38 | 119.55 | 107.15 |
| 130.18 | 126.66 | O=C(Nc1n[nH]c2cc(-c3ccsc3)ccc12)C1CC1 [SB-732932] | 8.30 | 11.50 | 63.56 | 84.83 |
| 95.28 | 75.61 | O=C(Nc1n[nH]c2cc(-c3cccc(F)c3)ccc12)C1CC1 [SB-735464] | 14.17 | 2.08 | 82.14 | 107.31 |
| 105.01 | 109.29 | O=C(Nc1n[nH]c2cc(-c3ccoc3)ccc12)C1CC1 [SB-738481] | 12.05 | 6.46 | 82.31 | 113.23 |
